These results are taken from patent US9060541B2, “Sterilizer for foods” (Kawakami Co., Ltd., priority 2009, dated 2015).

The test system of test [1] is Escherichia coli O-157 (enterohemorrhagic Escherichia coli O157: H7 EDL 933). Briefly: Cutting board sterilization test. The conditions noted are these: 0.7 ml sprayed on contaminated cutting board; swab sample 1 minute later; cultured 24 hours at 37° C. The format is cell-based.
Another test has as its system general viable bacteria. Kind of test: Hand sterilization test (Sterilization Test 2). The conditions noted are these: 1.4 ml sprayed on washed and dried hand; swab sample 1 minute later; cultured 48 hours at 37° C.
In test [2] the test system is Campylobacter jejuni subsp. Jejuni JCM2013. Kind of test: Sterilization test on beef (yukhoe; raw beef). The format is cell-based. The conditions noted are these: sprayed and mixed into inoculated beef; 24 hours after storage at 10° C.
The test system of the next test is Escherichia coli (NIHJ). Briefly: Sterilization effect determination test (Fujimoto's modified method of the Kelsey-Sykes method). The conditions noted are these: water remainder. The format is cell-based. Also noted: key: D: There is no sterilization effect.; C: There is a sterilization effect in step (1) but no sterilization effect in step (2).; B: There is a sterilization effect up to step (2) but no sterilization effect in step (3).; A: There is a sterilization effect up to step (3).

Test [3] deals with Staphylococcus aureus (209P). The description is as above. The conditions noted are these: water remainder. Also noted: key: D: There is no sterilization effect.; C: There is a sterilization effect in step (1) but no sterilization effect in step (2).; B: There is a sterilization effect up to step (2) but no sterilization effect in step (3).; A: There is a sterilization effect up to step (3). The class given is cell-based.

The mark [4] stands for this setting: Table 1, compositions of calcinated calcium and ethanol, 20° C., steps (1)-(3).
Setting [5] is: Table 2, compositions of calcinated calcium and ethanol, 20° C., steps (1)-(3).
[6] abbreviates: Table 3, compositions with sodium lactate blended.
The mark [7] stands for this setting: Table 4, compositions with sodium lactate blended.

Turning to `CCO` [70% ethanol, ethanol], the “Cutting board microbe eradication results (general viable bacteria count)” value in test [1] is 2.8 × 10^4. In addition, in the test on general viable bacteria, the “Hand sterilization results (general viable bacteria count)” value is reported as 6.2 × 10^3. In addition, the viable bacteria count in test [2] is reported as 10^5 to 10^6.
Take `CCO` [Ethanol 5 wt %, ethanol]: the Sterilization effect entry (in the test with Escherichia coli (NIHJ) (setting [4]); in test [3] (setting [5])) was “D” each time.
As to `CCO` [Ethanol 10 wt %, ethanol], the Sterilization effect entry (in the test on Escherichia coli (NIHJ) (setting [4]); in test [3] (setting [5])) was “D” in each case.
For `CCO` [Ethanol 20 wt %, ethanol], the Sterilization effect entry (in the test on Escherichia coli (NIHJ) (setting [4]); in test [3] (setting [5])) was “D” in each case.
On to `CCO` [Ethanol 50 wt %, ethanol], for which the figures for the Sterilization effect entry (with Escherichia coli (NIHJ) (setting [4]); in test [3] (setting [5])) were “B” and “D”, respectively.
The corresponding values for `CCO` [Ethanol 75 wt %, ethanol] are “B” and “B”.
The corresponding values for `CCO` [Ethanol 100 wt %, ethanol] are “A” and “A”.
Turning to `CC(O)C(=O)[O-].[Na+]` (stereo not shown) [Sodium lactate 1.5 wt %, sodium lactate], the Sterilization effect entry (in the test with Escherichia coli (NIHJ) (setting [6]); in test [3] (setting [7])) was “D” in each case.
Take `CC(O)C(=O)[O-].[Na+]` (stereo not shown) [Sodium lactate 3 wt %, sodium lactate]: the Sterilization effect result (with Escherichia coli (NIHJ) (setting [6]); in test [3] (setting [7])) was “D” in each case.
`CC(O)C(=O)[O-].[Na+]` (stereo not shown) [Sodium lactate 4.5 wt %, sodium lactate]: the Sterilization effect result (in the test on Escherichia coli (NIHJ) (setting [6]); in test [3] (setting [7])) was “D” throughout.
For the compound `CC(O)C(=O)[O-].[Na+]` (stereo not shown) [Sodium lactate 6 wt %, sodium lactate], the Sterilization effect result (in the test on Escherichia coli (NIHJ) (setting [6]); in test [3] (setting [7])) was “D” each time.
As for `CC(O)C(=O)[O-].[Na+]` (stereo not shown) [Sodium lactate 9 wt %, sodium lactate], the Sterilization effect entry was “no sterilization effect whatsoever and D” in the test on Escherichia coli (NIHJ) (setting [6]); “D” in test [3] (setting [7]).
